Measurements as given in patent US20080254993A1, “Use of abscisic acid analogs to enhance growth control” (priority 2007, published 2008).

Tests used:
tomato [1] = experiment: Tomato leaf transpiration, greenhouse, porometer (Example 5); type: in vivo, Tomato (variety: Rutgers)
Text: (§1) The effect of ABA analog (PBI-429) and trinexapac-ethyl combinations on transpiration and growth inhibition of dicotyledonous (tomato) was also examined in the greenhouse condition. Tomato (variety: Rutgers) seeds were sown in 18-cell flat filled with Promix PGX (available from Premier Horticulture Inc. Quakertown, Pa.) and grown for 3 weeks to allow for germination and initial growth. Plants were then transplanted into pots (18 cm in diameter and 18 cm in height), filled with Promix BX (available from Premier Horticulture Inc. Quakertown, Pa.), and grown for one week before the chemical treatment. Plants received daily irrigation and weekly fertilizer (1 g/L all purpose fertilizer 20-20-20, available from The Scotts Company, Marysville, Ohio). During the chemical treatment, a 24 mL (4 mL/plant) solution was foliar sprayed on the tomato canopy. Leaf transpiration rates were measured using a LI-1600 Steady State Porometer (LI-Cor, Lincoln, Nebr.) at 3, 5, 7, 10, and 14 days after treatment. The leaf transpiration rate was normalized to the percentage of control plant to minimize the experimental errors caused by environmental factors. Plant height was measured at 0, 3, 5, 7, 10 and 14 days after treatment. The growth rate was calculated based on the changes of plant height in certain intervals. The plants were harvested and the leaf number was counted at 14 days after treatment.

tomato [2] = experiment: Tomato plant height, growth rate and leaf number, greenhouse (Example 5); type: in vivo, Tomato (variety: Rutgers)
Text: as §1

Kentucky bluegrass = experiment: Greenhouse study on Kentucky bluegrass: turfgrass height, clip weight, turfgrass quality (Example 1); type: in vivo
Description: Greenhouse studies were conducted at the Research Farm of Valent BioSciences Corporation (Long Grove, Ill.). Grasses were grown in pots (18 cm in diameter and 18 cm in height) filled with Promix BX (available from Premier Horticulture Inc. Quakertown, Pa.). Grass was irrigated daily by an overhead irrigation system. The irrigation system was set up with multiple Tornado Mist Spray Heads (10 GPH at 40 PSI-Wetted diameter, NDS/Raindrip, Woodland Hills, Calif.). Spray heads were 1-meter apart from each other and 75 cm above grass canopy. Grass was cut with a scissor at 2.5 cm height and fertilizer (1 g/L all purpose fertilizer 20-20-20, available from The Scotts Company, Marysville, Ohio) was applied once per week.
Chemical solutions were prepared with distilled water. Tween 20 (0.05% v/v) was used as the surfactant when necessary. Trinexapac-ethyl (commercial product Primo Maxx, 11.3% active ingredient) was purchased from Syngenta Crop Protection Inc. (Greensboro, N.C.). ABA analogs, 8′ acetylene-ABA, acid (PBI-524), 8′ acetylene-ABA, ester (PBI-429), 8′ cyclopropane ester (PBI-696), or Tetralone, first carbon tail acetylene, ester (PBI-702), were obtained from Plant Biotechnology Institute, National Research Council of Canada (Saskatoon, Saskatchewan, Canada).
Chemical solutions were foliar applied to the turfgrass canopy at the rate of 4-gallons/1000 square foot (or 0.163 L/m^−2) immediately after finishing the preparation of solutions. After treatment, turfgrasses were arranged in a randomized complete block experimental design. Turfgrass quality, turfgrass height or clip fresh weight was measured on assigned dates. Turfgrass quality was visually rated on a 0-9 scale based on the color, uniformity, and density of the grass with 0 as the worst and 9 as the best. Turfgrass height was measured as the distance between canopy surface and soil. Clippings were collected form each plot; all plots were cut to a uniform height.
All experiments were randomized complete block experimental design. Data were analyzed by analysis of variance. Duncan's new multiple range tests at α=0.05 were used for mean separations.
Kentucky bluegrass sod was purchased from Deak sod farms, Inc. (Union Grove, Wis.). Grass was grown in the greenhouse for 94 days for establishment. Turfgrass was treated with one time foliar application of 50 ppm PBI-524, PBI-429, PBI-696 or PBI-702 alone or in combination with 250 ppm trinexapac-ethyl. The turfgrass was cut every 7 days. Turfgrass quality, turfgrass height, and clip weight were measured on days 7 and 35 after treatment.

[3] = 25 ppm PBI-429, 3 days after treatment
[4] = 25 ppm PBI-429, 5 days after treatment
[5] = 25 ppm PBI-429, 7 days after treatment
[6] = 25 ppm PBI-429, 10 days after treatment
[7] = 25 ppm PBI-429, 14 days after treatment
[8] = 50 ppm PBI-429, 3 days after treatment
[9] = 50 ppm PBI-429, 5 days after treatment
[10] = 50 ppm PBI-429, 7 days after treatment
[11] = 50 ppm PBI-429, 10 days after treatment
[12] = 50 ppm PBI-429, 14 days after treatment
[13] = 100 ppm PBI-429, 3 days after treatment
[14] = 100 ppm PBI-429, 5 days after treatment
[15] = 100 ppm PBI-429, 7 days after treatment
[16] = 100 ppm PBI-429, 10 days after treatment
[17] = 100 ppm PBI-429, 14 days after treatment
[18] = 200 ppm PBI-429, 3 days after treatment
[19] = 200 ppm PBI-429, 5 days after treatment
[20] = 200 ppm PBI-429, 7 days after treatment
[21] = 200 ppm PBI-429, 10 days after treatment
[22] = 200 ppm PBI-429, 14 days after treatment
[23] = PBI-429 25-200 ppm, trinexapac-ethyl 250-2000 ppm, alone or combined
[24] = 7 days after treatment, 50 ppm ABA analog alone
[25] = 35 days after treatment, 50 ppm ABA analog alone

SMILES: C#CC1(C)CC(=O)C=C(C)C1(O)/C=C/C(C)=C\C(=O)OC (stereo not shown) [PBI-429, 8′ acetylene-ABA, ester]
- Transpiration (tomato [1]; [3]): 53 % of control
- Transpiration (tomato [1]; [4]): 61 % of control
- Transpiration (tomato [1]; [5]): 75 % of control
- Transpiration (tomato [1]; [6]): 80 % of control
- Transpiration (tomato [1]; [7]): 103 % of control
- Transpiration (tomato [1]; [8]): 36 % of control
- Transpiration (tomato [1]; [9]): 32 % of control
- Transpiration (tomato [1]; [10]): 42 % of control
- Transpiration (tomato [1]; [11]): 69 % of control
- Transpiration (tomato [1]; [12]): 99 % of control
- Transpiration (tomato [1]; [13]): 34 % of control
- Transpiration (tomato [1]; [14]): 29 % of control
- Transpiration (tomato [1]; [15]): 38 % of control
- Transpiration (tomato [1]; [16]): 55 % of control
- Transpiration (tomato [1]; [17]): 98 % of control
- Transpiration (tomato [1]; [18]): 26 % of control
- Transpiration (tomato [1]; [19]): 24 % of control
- Transpiration (tomato [1]; [20]): 28 % of control
- Transpiration (tomato [1]; [21]): 34 % of control
- Transpiration (tomato [1]; [22]): 71 % of control
- Tomato leaf transpiration (in words) (tomato [1]; PBI-429 25-200 ppm, trinexapac-ethyl 250-2000 ppm, alone or combined, 3-14 days after treatment): inhibited tomato leaf transpiration
- Plant height (tomato [2]; 25 ppm PBI-429, 0 days after treatment): 6.3 cm
- Growth rate (tomato [2]; [3]): 0.8 cm/day
- Plant height (tomato [2]; [3]): 8.6 cm
- Growth rate (tomato [2]; [4]): 0.9 cm/day
- Plant height (tomato [2]; [4]): 10.4 cm
- Growth rate (tomato [2]; [5]): 1.2 cm/day
- Plant height (tomato [2]; [5]): 12.8 cm
- Growth rate (tomato [2]; [6]): 1.1 cm/day
- Plant height (tomato [2]; [6]): 16.0 cm
- Growth rate (tomato [2]; [7]): 1.2 cm/day
- Leaf number (tomato [2]; [7]): 11.0
- Plant height (tomato [2]; [7]): 20.7 cm
- Plant height (tomato [2]; 50 ppm PBI-429, 0 days after treatment): 6.3 cm
- Growth rate (tomato [2]; [8]): 0.6 cm/day
- Plant height (tomato [2]; [8]): 8.8 cm
- Growth rate (tomato [2]; [9]): 0.6 cm/day
- Plant height (tomato [2]; [9]): 10.0 cm
- Growth rate (tomato [2]; [10]): 0.8 cm/day
- Plant height (tomato [2]; [10]): 11.6 cm
- Growth rate (tomato [2]; [11]): 0.8 cm/day
- Plant height (tomato [2]; [11]): 13.9 cm
- Growth rate (tomato [2]; [12]): 1.1 cm/day
- Leaf number (tomato [2]; [12]): 11.0
- Plant height (tomato [2]; [12]): 18.2 cm
- Plant height (tomato [2]; 100 ppm PBI-429, 0 days after treatment): 6.3 cm
- Growth rate (tomato [2]; [13]): 0.6 cm/day
- Plant height (tomato [2]; [13]): 8.4 cm
- Growth rate (tomato [2]; [14]): 0.5 cm/day
- Plant height (tomato [2]; [14]): 9.4 cm
- Growth rate (tomato [2]; [15]): 0.7 cm/day
- Plant height (tomato [2]; [15]): 10.8 cm
- Growth rate (tomato [2]; [16]): 0.7 cm/day
- Plant height (tomato [2]; [16]): 12.8 cm
- Growth rate (tomato [2]; [17]): 0.9 cm/day
- Leaf number (tomato [2]; [17]): 10.8
- Plant height (tomato [2]; [17]): 16.2 cm
- Plant height (tomato [2]; 200 ppm PBI-429, 0 days after treatment): 6.4 cm
- Growth rate (tomato [2]; [18]): 0.5 cm/day
- Plant height (tomato [2]; [18]): 7.9 cm
- Growth rate (tomato [2]; [19]): 0.4 cm/day
- Plant height (tomato [2]; [19]): 8.7 cm
- Growth rate (tomato [2]; [20]): 0.5 cm/day
- Plant height (tomato [2]; [20]): 9.6 cm
- Growth rate (tomato [2]; [21]): 0.4 cm/day
- Plant height (tomato [2]; [21]): 10.9 cm
- Growth rate (tomato [2]; [22]): 0.7 cm/day
- Leaf number (tomato [2]; [22]): 10.5
- Plant height (tomato [2]; [22]): 13.8 cm
- Tomato leaf number (in words) (tomato [2]; 14 days after treatment, PBI-429 25-200 ppm, trinexapac-ethyl 250-2000 ppm, alone or combined): only significantly reduced leaf number at the highest rate
- Tomato growth rate in terms of plant height (in words) (tomato [2]; [23]): decreased tomato growth rate
- Tomato plant height (in words) (tomato [2]; [23]): decreased tomato plant height
- Clip Weight (Kentucky bluegrass; [24]): 0.4 g
- Turfgrass height (Kentucky bluegrass; [24]): 5.8 cm
- Turfgrass quality (Kentucky bluegrass; 7 days after treatment, 50 ppm ABA analog alone, visual 0-9 scale, 9 best): 6.6
- Turfgrass height and clip weight compared to the control (in words) (Kentucky bluegrass; 7 days after treatment, trinexapac-ethyl 250 ppm, PBI-524 or PBI-429 50 ppm, alone or combined): reduced turfgrass height and clip weight compared to the control
- Clip Weight (Kentucky bluegrass; [25]): 2.3 g
- Turfgrass height (Kentucky bluegrass; [25]): 8.1 cm
- Turfgrass height and clip weight (in words) (Kentucky bluegrass; [25]): no longer reduced turfgrass height and clip weight
